Test results from ChEMBL document CHEMBL1201862, “PubChem BioAssay data set” (2004).
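Where inhibition never reached the appropriate level, the endpoint shown equals the highest concentration tested. Otherwise, values were interpolated linearly from a five-concentration, 48-hour dose response in 96-well plates. Abbreviation: GI50, concentration required for 50% inhibition of growth.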 Calls of active or inactive are those of the source. Rule as the data show it: active = GI50 up to about 1.1 µM and inactive = higher.

Experiments:
Test in all cases: inhibition of tumour cell growth, NCI panel, 48 h
[1] = tested on: 786-0
[2] = tested on: A498
[3] = tested on: A549
[4] = tested on: ACHN
[5] = tested on: CAKI-1
[6] = tested on: CCRF-CEM
[7] = tested on: COLO 205
[8] = tested on: DLD-1
[9] = tested on: DMS-114
[10] = tested on: DMS-273
[11] = tested on: EKVX
[12] = tested on: HCC 2998
[13] = tested on: HCT-116
[14] = tested on: HCT-15
[15] = tested on: HL-60
[16] = tested on: HOP-18
[17] = tested on: HOP-62
[18] = tested on: HOP-92
[19] = tested on: HT-29
[20] = tested on: IGROV-1
[21] = tested on: K562
[22] = tested on: KM-20L2
[23] = tested on: KM12
[24] = tested on: LXFL 529
[25] = tested on: M14
[26] = tested on: M19-MEL
[27] = tested on: MOLT-4
[28] = tested on: Malme-3M
[29] = tested on: NCI-H226
[30] = tested on: NCI-H23
[31] = tested on: NCI-H460
[32] = tested on: NCI-H522
[33] = tested on: OVCAR-3
[34] = tested on: OVCAR-4
[35] = tested on: OVCAR-5
[36] = tested on: OVCAR-8
[37] = tested on: RPMI-8226
[38] = tested on: RXF 393
[39] = tested on: SF-268
[40] = tested on: SF-295
[41] = tested on: SF-539
[42] = tested on: SK-MEL-28
[43] = tested on: SK-MEL-2
[44] = tested on: SK-MEL-5
[45] = tested on: SK-OV-3
[46] = tested on: SN12C
[47] = tested on: SNB-19
[48] = tested on: SNB-75
[49] = tested on: SNB-78
[50] = tested on: SR
[51] = tested on: SW-620
[52] = tested on: TK-10
[53] = tested on: U-251
[54] = tested on: UACC-257
[55] = tested on: UACC-62
[56] = tested on: UO-31
[57] = tested on: LOX IMVI

## COCN/C(N)=N/C#N
[1]
  GI50: 80.4 µM (inactive)
[2]
  GI50: > 100 µM (inactive)
[3]
  GI50: > 100 µM (inactive)
[4]
  GI50: > 100 µM (inactive)
[5]
  GI50: > 100 µM (inactive)
[6]
  GI50: > 100 µM (inactive)
[7]
  GI50: 21.7 µM (inactive)
[8]
  GI50: 42 µM (inactive)
[9]
  GI50: 18.4 µM (inactive)
[10]
  GI50: 27.9 µM (inactive)
[11]
  GI50: > 100 µM (inactive)
[12]
  GI50: > 100 µM (inactive)
[13]
  GI50: 75 µM (inactive)
[14]
  GI50: 15.7 µM
[15]
  GI50: > 100 µM (inactive)
[16]
  GI50: > 100 µM (inactive)
[17]
  GI50: > 100 µM (inactive)
[18]
  GI50: > 100 µM (inactive)
[19]
  GI50: > 100 µM (inactive)
[20]
  GI50: > 100 µM (inactive)
[21]
  GI50: > 100 µM (inactive)
[22]
  GI50: > 100 µM (inactive)
[23]
  GI50: > 100 µM (inactive)
[24]
  GI50: > 100 µM (inactive)
[25]
  GI50: > 100 µM (inactive)
[26]
  GI50: 41.7 µM (inactive)
[27]
  GI50: > 100 µM (inactive)
[28]
  GI50: > 100 µM (inactive)
[29]
  GI50: > 100 µM (inactive)
[30]
  GI50: > 100 µM (inactive)
[31]
  GI50: > 100 µM (inactive)
[32]
  GI50: > 100 µM (inactive)
[33]
  GI50: > 100 µM (inactive)
[34]
  GI50: > 100 µM (inactive)
[35]
  GI50: > 100 µM (inactive)
[36]
  GI50: > 100 µM (inactive)
[37]
  GI50: > 100 µM (inactive)
[38]
  GI50: > 100 µM (inactive)
[39]
  GI50: 85.9 µM (inactive)
[40]
  GI50: > 100 µM (inactive)
[41]
  GI50: > 100 µM (inactive)
[42]
  GI50: > 100 µM (inactive)
[43]
  GI50: > 100 µM (inactive)
[44]
  GI50: > 100 µM (inactive)
[45]
  GI50: > 100 µM (inactive)
[46]
  GI50: > 100 µM (inactive)
[47]
  GI50: > 100 µM (inactive)
[48]
  GI50: > 100 µM (inactive)
[49]
  GI50: > 100 µM (inactive)
[50]
  GI50: 15.1 µM (inactive)
[51]
  GI50: 15.7 µM (inactive)
[52]
  GI50: > 100 µM (inactive)
[53]
  GI50: 27.4 µM (inactive)
[54]
  GI50: > 100 µM (inactive)
[55]
  GI50: > 100 µM (inactive)
[56]
  GI50: > 100 µM (inactive)

## O=C(O)c1cc(S(=O)(=O)N/N=C\c2c3ccccc3[n+]([O-])c3ccccc23)ccc1O
[1]
  GI50: 11.7 µM (inactive)
[2]
  GI50: 14.1 µM (inactive)
[3]
  GI50: 22.7 µM (inactive)
[4]
  GI50: 18.6 µM (inactive)
[5]
  GI50: 45.8 µM (inactive)
[6]
  GI50: 8.57 µM (inactive)
[7]
  GI50: 15.1 µM (inactive)
[8]
  GI50: 16.7 µM (inactive)
[9]
  GI50: 12.7 µM (inactive)
[10]
  GI50: 7.16 µM (inactive)
[11]
  GI50: 44.4 µM (inactive)
[12]
  GI50: 6.97 µM (inactive)
[13]
  GI50: 7.55 µM (inactive)
[14]
  GI50: 5.96 µM
[15]
  GI50: 4.07 µM (inactive)
[16]
  GI50: 11.7 µM (inactive)
[17]
  GI50: 7.48 µM (inactive)
[18]
  GI50: 9.64 µM (inactive)
[19]
  GI50: 19.5 µM (inactive)
[20]
  GI50: 22.1 µM (inactive)
[21]
  GI50: 8.61 µM (inactive)
[22]
  GI50: 13.3 µM (inactive)
[23]
  GI50: 23.8 µM (inactive)
[57]
  GI50: 8 µM (inactive)
[24]
  GI50: 12.2 µM (inactive)
[25]
  GI50: 17.1 µM (inactive)
[26]
  GI50: 13.3 µM (inactive)
[27]
  GI50: 3.8 µM (inactive)
[28]
  GI50: 17.7 µM (inactive)
[29]
  GI50: 26.7 µM (inactive)
[30]
  GI50: 8.04 µM (inactive)
[31]
  GI50: 5.96 µM (inactive)
[32]
  GI50: 8.3 µM (inactive)
[33]
  GI50: 40.1 µM (inactive)
[34]
  GI50: 5.18 µM (inactive)
[35]
  GI50: 30.7 µM (inactive)
[36]
  GI50: 12.7 µM (inactive)
[37]
  GI50: 7.48 µM (inactive)
[39]
  GI50: 11.7 µM (inactive)
[40]
  GI50: 4.45 µM (inactive)
[42]
  GI50: 12.3 µM (inactive)
[43]
  GI50: 16.9 µM (inactive)
[44]
  GI50: 11.7 µM (inactive)
[45]
  GI50: 38.3 µM (inactive)
[46]
  GI50: 17.9 µM (inactive)
[47]
  GI50: 31.6 µM (inactive)
[48]
  GI50: 2.58 µM (inactive)
[49]
  GI50: 20.6 µM (inactive)
[51]
  GI50: 11.3 µM (inactive)
[52]
  GI50: 17.8 µM (inactive)
[53]
  GI50: 23.2 µM (inactive)
[54]
  GI50: 26.1 µM (inactive)
[55]
  GI50: 8.69 µM (inactive)
[56]
  GI50: 17.7 µM (inactive)
